For eleven compounds, melting point results are on record in patent publication US7541463B2, “Sulfur-containing naphthalimide derivatives” (East China University of Science and Technology, priority 2003, dated 2009).

`C=C(C)C(CN1C(=O)c2cccc3c2c(cc2c4ccccc4sc32)C1=O)OO` (centres unmarked) [compound 19] had a melting point of 174 to 175 °C.

On to `C=C(C)C(O)CN1C(=O)c2cccc3c2c(cc2c4ccccc4sc32)C1=O` (centres unmarked) [compound 20], for which the melting point was in the range of 95 to 97 °C.

For `CC(C)=CCN1C(=O)c2cccc3c2c(cc2c4ccccc4sc32)C1=O` [compound 21], the melting point lay within 207 to 208 °C.

In the case of `C=C(C)C(CCn1c(=O)c2ccc3sc4ccccc4c4ccc(c1=O)c2c34)OO` (centres unmarked) [compound 22], the melting point lay within 210 to 211 °C.

As for `CC(C)=CCCn1c(=O)c2ccc3sc4ccccc4c4ccc(c1=O)c2c34` [compound 23], the melting point lay in the range of 202 to 203 °C.

With `O=C(ON1C(=O)c2cccc3cccc(c23)C1=S)c1ccccc1` [compound 24], the melting point lay in the range of 189 to 190 °C.

`O=C(ON1C(=O)c2cccc3cccc(c23)C1=S)c1ccc(Cl)cc1` [compound 26] gave a melting point of 182 to 183 °C.

Take `O=C(ON1C(=O)c2cccc3cccc(c23)C1=S)c1ccc(Cl)cc1F` [compound 30]: the melting point is 208 to 210 °C.

Compound `Cc1cc(C)cc(C(=O)ON2C(=O)c3cccc4cccc(c34)C2=S)c1` [compound 31] displayed a melting point of 216 to 218 °C.

Compound `COc1ccc(C(=O)ON2C(=O)c3cccc4cccc(c34)C2=S)cc1OC` [compound 32] returned a melting point of 221 to 223 °C.

`O=C(ON1C(=O)c2cccc3cccc(c23)C1=S)c1ccco1` [compound 34] registered a melting point of 209 to 211 °C.
